Drawing on PMC6545883 (Journal of the American Chemical Society, 2019), this text covers Km for 1 compound.

By Km is commonly meant the substrate concentration at which the rate is half of its maximum.

The assay concerns the target PtmO8 (Streptomyces platensis, UniProt A0A0A0UVL0). Kind of assay: steady-state enzyme kinetics. In kind it is biochemical.

Consider `NC(=O)c1ccc[n+]([C@@H]2O[C@H](COP(=O)([O-])OP(=O)(O)OC[C@H]3O[C@@H](n4cnc5c(N)ncnc54)[C@H](O)[C@@H]3O)[C@@H](O)[C@H]2O)c1` [NAD^+], for which the Km was determined as 34.2 ± 3.6 µM.
